From US20260256792A1, “TREATMENT OF CHRONIC SPONTANEOUS URTICARIA BY ADMINISTERING (R)-2-[3-[4-AMINO-3-(2-FLUORO-4-PHENOXY-PHENYL)PYRAZOLO[3,4-D]PYRIMIDIN-1-YL]PIPERIDINE-1-CARBONYL]-4-METHYL-4-[4-(OXETAN-3-YL)PIPERAZIN-1-YL]PENT-2-ENENITRILE” (priority 2023, published 2026)

System: moderate-to-severe chronic spontaneous urticaria (CSU)
Experiment: Phase 2 CSU study: urticaria activity score over 7 days (UAS7)
Assay type: in vivo, human
Settings: Omalizumab-naïve, 400 mg TID
Excerpt: The study comprises a 12 week, randomized, double-blind, placebo-controlled, multi-center, dose-ranging efficacy and safety phase, followed by a 40 week open label extension (OLE) phase (see FIG. 1). The study consists of three phases and an optional OLE phase. […] Clinically, CSU is characterized by the spontaneous and recurrent appearance of pruritic hives. The proposed primary endpoints were the UAS7 at Week 12 in EU and EU reference countries and the ISS7 in the US. Regardless of where a participant was from, all assessments were the same. The UAS7 score is a composite score containing both the HSS7 and the ISS7. This allowed a global assessment of the two key components of urticaria: hives and itch. […] The UAS is a validated PRO measure. […] The daily UAS scores range from 0 to 6 point/day. […] Patients were to complete the UAS using the e-diary. […] The following secondary endpoints were to be analyzed using the same approach as for the primary endpoint: • Change from baseline in UAS7 at Week 4 • Change from baseline in UAS7 at Week 12 (for US and US reference countries) • Change from baseline in ISS7 at Week 12 (except US and US reference countries) • Change from baseline in HSS7 at Week 12 The following responder secondary endpoints were to be analyzed using the Cochran-Mantel-Haenszel test adjusted by region: • Proportion of participants with UAS7<6 at Week 12 • Proportion of participants with UAS7=0 at Week 12 Participants who received selected prohibited medications and/or rescue medications were to be considered as non-responders for time points after the medication usage. For other participants, all available data including those collected during the off-treatment period were to be used to determine the responder/non-responder status. Missing data were to be considered as non-responders.

CC(C)(C=C(C#N)C(=O)N1CCC[C@@H](n2nc(-c3ccc(Oc4ccccc4)cc3F)c3c(N)ncnc32)C1)N1CCN(C2COC2)CC1 [rilzabrutinib, (R)-2-[3-[4-amino-3-(2-fluoro-4-phenoxy-phenyl)pyrazolo[3,4-d]pyrimidin-1-yl]piperidine-1-carbonyl]-4-methyl-4-[4-(oxetan-3-yl)piperazin-1-yl]pent-2-enenitrile]
Imputed non-responder n (%), UAS7 = 0 (Week 3): 0 n (%)
Imputed non-responder n (%), UAS7 ≤6 (Week 3): 0 n (%)
Non-responder n (%), UAS7 = 0 (Week 3): 32 (91.4) n (%)
Non-responder n (%), UAS7 ≤6 (Week 3): 27 (77.1) n (%)
OR for rilzabrutinib vs. placebo, UAS7 = 0 (Week 3): 3.625
OR for rilzabrutinib vs. placebo, UAS7 ≤6 (Week 3): 3.239
RRD (%) for rilzabrutinib vs. placebo, UAS7 = 0 (Week 3): 5.8 %
RRD (%) for rilzabrutinib vs. placebo, UAS7 ≤6 (Week 3): 13.6 %
Responder n (%), UAS7 = 0 (Week 3): 3 (8.6) n (%)
Responder n (%), UAS7 ≤6 (Week 3): 8 (22.9) n (%)
Imputed non-responder n (%), UAS7 = 0 (Week 4): 3 (8.6) n (%)
Imputed non-responder n (%), UAS7 ≤6 (Week 4): 3 (8.6) n (%)
Non-responder n (%), UAS7 = 0 (Week 4): 32 (91.4) n (%)
Non-responder n (%), UAS7 ≤6 (Week 4): 30 (85.7) n (%)
OR for rilzabrutinib vs. placebo, UAS7 = 0 (Week 4): 1.460
OR for rilzabrutinib vs. placebo, UAS7 ≤6 (Week 4): 1.185
RRD (%) for rilzabrutinib vs. placebo, UAS7 = 0 (Week 4): 2.5 %
RRD (%) for rilzabrutinib vs. placebo, UAS7 ≤6 (Week 4): 1.8 %
Responder n (%), UAS7 = 0 (Week 4): 3 (8.6) n (%)
Responder n (%), UAS7 ≤6 (Week 4): 5 (14.3) n (%)
Imputed non-responder n (%), UAS7 = 0 (Week 5): 2 (5.7) n (%)
Imputed non-responder n (%), UAS7 ≤6 (Week 5): 2 (5.7) n (%)
Non-responder n (%), UAS7 = 0 (Week 5): 29 (82.9) n (%)
Non-responder n (%), UAS7 ≤6 (Week 5): 25 (71.4) n (%)
OR for rilzabrutinib vs. placebo, UAS7 = 0 (Week 5): 6.971
OR for rilzabrutinib vs. placebo, UAS7 ≤6 (Week 5): 5.923
RRD (%) for rilzabrutinib vs. placebo, UAS7 = 0 (Week 5): 13.2 %
RRD (%) for rilzabrutinib vs. placebo, UAS7 ≤6 (Week 5): 19.7 %
Responder n (%), UAS7 = 0 (Week 5): 6 (17.1) n (%)
Responder n (%), UAS7 ≤6 (Week 5): 10 (28.6) n (%)
Imputed non-responder n (%), UAS7 = 0 (Week 6): 4 (11.4) n (%)
Imputed non-responder n (%), UAS7 ≤6 (Week 6): 4 (11.4) n (%)
Non-responder n (%), UAS7 = 0 (Week 6): 28 (80.0) n (%)
Non-responder n (%), UAS7 ≤6 (Week 6): 27 (77.1) n (%)
OR for rilzabrutinib vs. placebo, UAS7 = 0 (Week 6): 8.082
OR for rilzabrutinib vs. placebo, UAS7 ≤6 (Week 6): 1.274
RRD (%) for rilzabrutinib vs. placebo, UAS7 = 0 (Week 6): 15.6 %
RRD (%) for rilzabrutinib vs. placebo, UAS7 ≤6 (Week 6): 3.7 %
Responder n (%), UAS7 = 0 (Week 6): 7 (20.0) n (%)
Responder n (%), UAS7 ≤6 (Week 6): 8 (22.9) n (%)
Imputed non-responder n (%), UAS7 = 0 (Week 7): 5 (14.3) n (%)
Imputed non-responder n (%), UAS7 ≤6 (Week 7): 5 (14.3) n (%)
Non-responder n (%), UAS7 = 0 (Week 7): 32 (91.4) n (%)
Non-responder n (%), UAS7 ≤6 (Week 7): 26 (74.3) n (%)
OR for rilzabrutinib vs. placebo, UAS7 = 0 (Week 7): 3.625
OR for rilzabrutinib vs. placebo, UAS7 ≤6 (Week 7): 2.685
RRD (%) for rilzabrutinib vs. placebo, UAS7 = 0 (Week 7): 5.8 %
RRD (%) for rilzabrutinib vs. placebo, UAS7 ≤6 (Week 7): 13.4 %
Responder n (%), UAS7 = 0 (Week 7): 3 (8.6) n (%)
Responder n (%), UAS7 ≤6 (Week 7): 9 (25.7) n (%)
Imputed non-responder n (%), UAS7 = 0 (Week 8): 7 (20.0) n (%)
Imputed non-responder n (%), UAS7 ≤6 (Week 8): 7 (20.0) n (%)
Non-responder n (%), UAS7 = 0 (Week 8): 32 (91.4) n (%)
Non-responder n (%), UAS7 ≤6 (Week 8): 26 (74.3) n (%)
OR for rilzabrutinib vs. placebo, UAS7 = 0 (Week 8): 1.351
OR for rilzabrutinib vs. placebo, UAS7 ≤6 (Week 8): 1.513
RRD (%) for rilzabrutinib vs. placebo, UAS7 = 0 (Week 8): 1.9 %
RRD (%) for rilzabrutinib vs. placebo, UAS7 ≤6 (Week 8): 6.3 %
Responder n (%), UAS7 = 0 (Week 8): 3 (8.6) n (%)
Responder n (%), UAS7 ≤6 (Week 8): 9 (25.7) n (%)
Imputed non-responder n (%), UAS7 = 0 (Week 9): 6 (17.1) n (%)
Imputed non-responder n (%), UAS7 ≤6 (Week 9): 6 (17.1) n (%)
Non-responder n (%), UAS7 = 0 (Week 9): 32 (91.4) n (%)
Non-responder n (%), UAS7 ≤6 (Week 9): 24 (68.6) n (%)
OR for rilzabrutinib vs. placebo, UAS7 = 0 (Week 9): 0.893
OR for rilzabrutinib vs. placebo, UAS7 ≤6 (Week 9): 3.358
